# Measured values as given in patent publication US6660309B2, “Antitumor agent” (Biozak, Inc., priority 2001, dated 2003).
# How the values were obtained:
# [1] = tested on: βTC-6 cells; assay: Tolbutamide-induced insulin secretion in βTC-6 cells (FIG. 2); format: cell-based
# Procedure: FIG. 2 is a graph showing the effect of Composition A on tolbutamide-induced insulin secretion in βTC-6 cells.
# (§1) In order to avoid interference from the natural insulin secretagogue glucose, the effect of Composition A on insulin secretion was studied under glucose-free conditions. The sulfonylurea compound, tolbutamide was used as the insulin secretagogue in the studies of the effect of Composition A on stimulated insulin secretion.
# (§2) Insulin assays were performed using the rat insulin assay kit purchased from Crystal Chemists, Inc. (Chicago, Ill., USA). This kit uses a in an Enzyme Linked Immunosorbent Assay (non-competitive sandwich method). The assay was performed according to the manufacturer's protocol. Briefly, the standard or sample (5 μl) diluted with a sample diluent was added to the wells of a multi-well polystyrene plate. The wells were precoated with antiinsulin antibody. After 2 hours of incubation, the wells were thoroughly washed with a washing buffer. A peroxidase-conjugated antiinsulin antibody solution was then added to the well. […] The color was read in an microplate reader using a 405 filter. […]
# (§3) The effect of Composition A on tolbutamide-induced insulin secretion in HIT-T15 and βTC-6 cells is shown in […]. […] Samples were measured 1 hour later. […]
# [2] = tested on: HIT-T15 cells; assay: Tolbutamide-induced insulin secretion in HIT-T15 cells (FIG. 3); format: cell-based; conditions: FIG. 3, tolbutamide alone, 1 hour; without tolbutamide about 0.17
# Procedure: FIG. 3 is a graph showing the effect of Composition A on tolbutamide-induced insulin secretion in HIT-T15 cells.
# as §1, §2, §3
smiles,measurement,setting,value
CCCCNC(=O)NS(=O)(=O)c1ccc(C)cc1 [tolbutamide],Insulin production with tolbutamide alone,"[1]; FIG. 2, tolbutamide 10 μg/ml alone, 1 hour, without tolbutamide 0.9",1.2 ng/ml/mg protein
same,More insulin secreted by tolbutamide-treated cells than by untreated cells,"[1]; βTC-6, 1-hour period following glucose deprivation and replacement of the medium",approximately 30%
same,Insulin secretion with tolbutamide alone,[2],about 0.3 ng/ml/mg protein
